Results: patent publication US8192962B2, “Processes for detecting toxic substances” (Daikin Industries, Ltd., priority 2001, dated 2012)

Test system: Transport facilitation protein genes
Test: DNA chip mRNA expression in yeast, transport facilitation protein genes (Table 5)
Type: cell-based, Saccharomyces cerevisiae S288C
Summary of the method: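 S. cerevisiae S288C grown at 25° C in YPD were exposed in log phase for two hours to one toxic chemical at a growth-inhibiting, non-lethal concentration; untreated cells served as control. Poly(A) mRNA was reverse-transcribed with Cy3/Cy5-dUTP and hybridized to a whole-genome yeast DNA chip at 65° C for over 12 hours; values are fluorescence ratios versus untreated.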

## Oc1cc(Cl)c(Cl)cc1Cl [(6), 2,4,5-trichlorophenol]
Yeast gene YBL030C
  The level of expressed mRNA in the presence of chemical substance/The level of expressed mRNA in the absence of chemical substance: 1.1
Yeast gene YBL099W
  The level of expressed mRNA in the presence of chemical substance/The level of expressed mRNA in the absence of chemical substance: 0.9
Yeast gene YBR052C
  The level of expressed mRNA in the presence of chemical substance/The level of expressed mRNA in the absence of chemical substance: 2.1
Yeast gene YBR068C
  The level of expressed mRNA in the presence of chemical substance/The level of expressed mRNA in the absence of chemical substance: 1.9
Yeast gene YBR127C
  The level of expressed mRNA in the presence of chemical substance/The level of expressed mRNA in the absence of chemical substance: 1.1
Yeast gene YBR132C
  The level of expressed mRNA in the presence of chemical substance/The level of expressed mRNA in the absence of chemical substance: 1.2
Yeast gene YBR207W
  The level of expressed mRNA in the presence of chemical substance/The level of expressed mRNA in the absence of chemical substance: 1.6
Yeast gene YBR293W
  The level of expressed mRNA in the presence of chemical substance/The level of expressed mRNA in the absence of chemical substance: 0.9
Yeast gene YBR294W
  The level of expressed mRNA in the presence of chemical substance/The level of expressed mRNA in the absence of chemical substance: 1.2
Yeast gene YBR298C
  The level of expressed mRNA in the presence of chemical substance/The level of expressed mRNA in the absence of chemical substance: 0.4
Yeast gene YCL025C
  The level of expressed mRNA in the presence of chemical substance/The level of expressed mRNA in the absence of chemical substance: 0.9
Yeast gene YCL038C
  The level of expressed mRNA in the presence of chemical substance/The level of expressed mRNA in the absence of chemical substance: 3.2
Yeast gene YCR024C-A
  The level of expressed mRNA in the presence of chemical substance/The level of expressed mRNA in the absence of chemical substance: 1.2
Yeast gene YCR037C
  The level of expressed mRNA in the presence of chemical substance/The level of expressed mRNA in the absence of chemical substance: 1.8
Yeast gene YCR098C
  The level of expressed mRNA in the presence of chemical substance/The level of expressed mRNA in the absence of chemical substance: 1.6
Yeast gene YDL128W
  The level of expressed mRNA in the presence of chemical substance/The level of expressed mRNA in the absence of chemical substance: 2.3
Yeast gene YDL198C
  The level of expressed mRNA in the presence of chemical substance/The level of expressed mRNA in the absence of chemical substance: 0.8
Yeast gene YDL210W
  The level of expressed mRNA in the presence of chemical substance/The level of expressed mRNA in the absence of chemical substance: 1.3
Yeast gene YDL245C
  The level of expressed mRNA in the presence of chemical substance/The level of expressed mRNA in the absence of chemical substance: 1.1
Yeast gene YDR038C
  The level of expressed mRNA in the presence of chemical substance/The level of expressed mRNA in the absence of chemical substance: 1.8
Yeast gene YDR039C
  The level of expressed mRNA in the presence of chemical substance/The level of expressed mRNA in the absence of chemical substance: 1.1
Yeast gene YDR086C
  The level of expressed mRNA in the presence of chemical substance/The level of expressed mRNA in the absence of chemical substance: 0.8
Yeast gene YDR270W
  The level of expressed mRNA in the presence of chemical substance/The level of expressed mRNA in the absence of chemical substance: 2.2
Yeast gene YDR298C
  The level of expressed mRNA in the presence of chemical substance/The level of expressed mRNA in the absence of chemical substance: 1.2
Yeast gene YDR342C
  The level of expressed mRNA in the presence of chemical substance/The level of expressed mRNA in the absence of chemical substance: 1.1
Yeast gene YDR343C
  The level of expressed mRNA in the presence of chemical substance/The level of expressed mRNA in the absence of chemical substance: 1.3
Yeast gene YDR345C
  The level of expressed mRNA in the presence of chemical substance/The level of expressed mRNA in the absence of chemical substance: 1.2
Yeast gene YDR387C
  The level of expressed mRNA in the presence of chemical substance/The level of expressed mRNA in the absence of chemical substance: 1.2
Yeast gene YDR497C
  The level of expressed mRNA in the presence of chemical substance/The level of expressed mRNA in the absence of chemical substance: 0.6
Yeast gene YEL027W
  The level of expressed mRNA in the presence of chemical substance/The level of expressed mRNA in the absence of chemical substance: 1.1
Yeast gene YEL063C
  The level of expressed mRNA in the presence of chemical substance/The level of expressed mRNA in the absence of chemical substance: 1.3
Yeast gene YEL065W
  The level of expressed mRNA in the presence of chemical substance/The level of expressed mRNA in the absence of chemical substance: 2.3
Yeast gene YER053C
  The level of expressed mRNA in the presence of chemical substance/The level of expressed mRNA in the absence of chemical substance: 2.8
Yeast gene YER119C
  The level of expressed mRNA in the presence of chemical substance/The level of expressed mRNA in the absence of chemical substance: 1.3
Yeast gene YFL011W
  The level of expressed mRNA in the presence of chemical substance/The level of expressed mRNA in the absence of chemical substance: 1.0
Yeast gene YFL041W
  The level of expressed mRNA in the presence of chemical substance/The level of expressed mRNA in the absence of chemical substance: 2.0
Yeast gene YFL050C
  The level of expressed mRNA in the presence of chemical substance/The level of expressed mRNA in the absence of chemical substance: 0.9
Yeast gene YFL054C
  The level of expressed mRNA in the presence of chemical substance/The level of expressed mRNA in the absence of chemical substance: 2.4
Yeast gene YFL055W
  The level of expressed mRNA in the presence of chemical substance/The level of expressed mRNA in the absence of chemical substance: 1.1
Yeast gene YGL006W
  The level of expressed mRNA in the presence of chemical substance/The level of expressed mRNA in the absence of chemical substance: 1.0
Yeast gene YGL008C
  The level of expressed mRNA in the presence of chemical substance/The level of expressed mRNA in the absence of chemical substance: 1.9
Yeast gene YGL104C
  The level of expressed mRNA in the presence of chemical substance/The level of expressed mRNA in the absence of chemical substance: 2.1
Yeast gene YGL167C
  The level of expressed mRNA in the presence of chemical substance/The level of expressed mRNA in the absence of chemical substance: 2.0
Yeast gene YGL255W
  The level of expressed mRNA in the presence of chemical substance/The level of expressed mRNA in the absence of chemical substance: 1.1
Yeast gene YGR055W
  The level of expressed mRNA in the presence of chemical substance/The level of expressed mRNA in the absence of chemical substance: 1.1
Yeast gene YGR065C
  The level of expressed mRNA in the presence of chemical substance/The level of expressed mRNA in the absence of chemical substance: 2.4
Yeast gene YGR082W
  The level of expressed mRNA in the presence of chemical substance/The level of expressed mRNA in the absence of chemical substance: 1.1
Yeast gene YGR096W
  The level of expressed mRNA in the presence of chemical substance/The level of expressed mRNA in the absence of chemical substance: 1.7
Yeast gene YGR138C
  The level of expressed mRNA in the presence of chemical substance/The level of expressed mRNA in the absence of chemical substance: 0.8
Yeast gene YGR191W
  The level of expressed mRNA in the presence of chemical substance/The level of expressed mRNA in the absence of chemical substance: 1.1
Yeast gene YGR197C
  The level of expressed mRNA in the presence of chemical substance/The level of expressed mRNA in the absence of chemical substance: 0.5
Yeast gene YGR224W
  The level of expressed mRNA in the presence of chemical substance/The level of expressed mRNA in the absence of chemical substance: 0.8
Yeast gene YGR260W
  The level of expressed mRNA in the presence of chemical substance/The level of expressed mRNA in the absence of chemical substance: 0.9
